Experimental data: PubChem BioAssay AID743476 (The Scripps Research Institute Molecular Screening Center, 2014)
Activity calls are given as the source filed them. No rule for the calls is given here.

Tested on: CCHF-vOTU
Experiment: PubChem AID 743476
Conditions: Recombinant CCHFV vOTU, PEP-AMC fluorescence cleavage, with PEP-AMC substrate, active compounds read high

COc1cc(Br)c(C(=O)c2nccc3cc(OC)c(OC)cc23)cc1OC
inhibition (Assay 1, at 0.27 µM): 31.9% | inhibition (Assay 2, at 0.27 µM): 25.2%

CN(C1=C(NC(=O)c2ccccc2)C(=O)c2ccccc2C1=O)C1CCS(=O)(=O)C1 (configuration not stated)
inhibition (Assay 1, at 2.43 µM): 54.2% | inhibition (Assay 2, at 2.43 µM): 22.7%

Cn1nc(-c2ccccn2)nc2c(=O)n(C)c(=O)nc1-2
inhibition (Assay 1, at 0.37 µM): 63.3% | inhibition (Assay 2, at 0.37 µM): 56.2%

Cc1ccccc1-c1cc2c(nn1)-c1ccccc1C2=O
inhibition (Assay 1, at 0.46 µM): 27.6% | inhibition (Assay 2, at 0.46 µM): 24.5%

CCOC(=O)C1=C(COC(=O)c2ccc([N+](=O)[O-])s2)NC(=O)NC1C (configuration not stated)
inhibition (Assay 1, at 7.84 µM): 5.42% (inactive) | inhibition (Assay 2, at 7.84 µM): 9.9% (inactive) | inhibition (Assay 3, at 15.68 µM): 6% (inactive)

O=C(NC1=CC(=O)c2ccccc2C1=O)c1ccccc1
inhibition (Assay 1, at 3.85 µM): 5.25% (inactive) | inhibition (Assay 2, at 3.85 µM): 9.67% (inactive) | inhibition (Assay 3, at 7.7 µM): 16.4% (inactive)

O=S(=O)(Nc1cc2nc3ccccc3nc2n1Cc1ccccc1)c1ccc(Cl)cc1
inhibition (Assay 1, at 2.57 µM): 72.3% | inhibition (Assay 2, at 2.57 µM): -112% (inactive) | inhibition (Assay 3, at 5.14 µM): 47.9% (inactive)

NS(=O)(=O)c1ccc(NC(=O)COC(=O)c2ccc([N+](=O)[O-])s2)cc1
inhibition (Assay 1, at 8.31 µM): 70.6% | inhibition (Assay 2, at 8.31 µM): 24.6% | inhibition (Assay 3, at 16.62 µM): 23.1%

O=C(c1ccco1)[C@@H]1[C@@H]2C(=O)N(c3ccc(Br)cc3)C(=O)[C@@H]2C2c3ccccc3C=CN21 (some centres not stated)
inhibition (Assay 1, at 5.26 µM): -13.1% (inactive) | inhibition (Assay 2, at 5.26 µM): 37.6%

CCOC(=O)N=Nc1c2ccccc2c2nc3no[nH]c3nc12
inhibition (Assay 1, at 2.35 µM): 8.81% (inactive) | inhibition (Assay 2, at 2.35 µM): 13.6% (inactive) | inhibition (Assay 3, at 4.7 µM): 25.3%

O=C1Cc2ccccc2C(=O)N1Cc1ccccc1
inhibition (Assay 1, at 1.28 µM): 38.7% | inhibition (Assay 2, at 1.28 µM): 50.3%

O=C(O)CSc1cc(NS(=O)(=O)c2cccc([N+](=O)[O-])c2)c2ccccc2c1O
inhibition (Assay 1, at 2.44 µM): -7.65% (inactive) | inhibition (Assay 2, at 2.44 µM): 5.22% (inactive) | inhibition (Assay 3, at 4.88 µM): 13.1% (inactive)

COC1=C(N)C(=O)c2nc(C)ccc2C1=O
inhibition (Assay 1, at 1.37 µM): 16.7% (inactive) | inhibition (Assay 2, at 1.37 µM): 50.9%

COc1ccc2noc3c2c1C(=O)c1ccccc1-3
inhibition (Assay 1, at 3.08 µM): 16.5% (inactive) | inhibition (Assay 2, at 3.08 µM): 15.2% (inactive) | inhibition (Assay 3, at 6.16 µM): 64.3%

O=C1OC(Nc2cc(Br)cc3cccnc23)c2ccccc21 (configuration not stated)
inhibition (Assay 1, at 5.23 µM): 21.7% | inhibition (Assay 2, at 5.23 µM): 16.9% (inactive) | inhibition (Assay 3, at 10.46 µM): 10.9% (inactive)

CCn1nc(/C=C/c2ccccc2)nc2c(=O)n(C)c(=O)nc1-2
inhibition (Assay 1, at 0.28 µM): 58.4% | inhibition (Assay 2, at 0.28 µM): 91.9%

O=C(O)CSc1cc(NS(=O)(=O)c2ccc(Cl)cc2)c2ccccc2c1O
inhibition (Assay 1, at 5 µM): 6.76% (inactive) | inhibition (Assay 2, at 5 µM): 8.14% (inactive) | inhibition (Assay 3, at 10 µM): 7.8% (inactive)

Cc1ccc(N2C(=O)[C@@H]3[C@H](C2=O)C2c4ccccc4C=CN2[C@@H]3C(=O)c2ccco2)cc1 (some centres not stated)
inhibition (Assay 1, at 4.21 µM): 8.15% (inactive) | inhibition (Assay 2, at 4.21 µM): 18.6% (inactive) | inhibition (Assay 3, at 8.42 µM): 44.7%

COc1cc(NCCCC(C)N)c2ncccc2c1 (configuration not stated)
inhibition (Assay 1, at 2.52 µM): 25.6% | inhibition (Assay 2, at 2.52 µM): 0.7% (inactive) | inhibition (Assay 3, at 5.04 µM): -1.2% (inactive)

O=C(COC(=O)c1ccc([N+](=O)[O-])s1)Nc1ccccc1
inhibition (Assay 2, at 10.31 µM): 8.51% (inactive) | inhibition (Assay 3, at 20.62 µM): 4.9% (inactive)

CCc1cc[n+](C2=C(NS(=O)(=O)c3cccs3)C(=O)c3ccccc3C2=O)cc1
inhibition (Assay 1, at 4.39 µM): 13.7% (inactive) | inhibition (Assay 2, at 4.39 µM): 18.6% (inactive) | inhibition (Assay 3, at 8.78 µM): 37.9%

Cc1cnc(C2OCCO2)c2cccc(N)c12
inhibition (Assay 1, at 2.56 µM): 16.2% (inactive) | inhibition (Assay 2, at 2.56 µM): 0.6% (inactive) | inhibition (Assay 3, at 5.12 µM): 1% (inactive)
